Tested on: Mouse B16 melanoma cells
Assay: Melanin production inhibition test
Format: cell-based
Conditions: for minimal effective concentration: 72 h, mouse B16 melanoma cells, three days after addition, minimum non-cytotoxic final concentration at which ratio of melanin amount was 80% or less, read-out: Inhibitory effect on melanin production; for Minimum concentration (%): minimum concentration at which an inhibitory effect on melanin production was significantly exhibited in melanoma B16 cells
Description: A test for melanin production inhibition by the compounds of the formula (1) was conducted. The test method is as follows.
Melanin Production Inhibition Test
(1) Inoculation of Cells and Addition of Test Substances
Mouse B16 melanoma cells were inoculated in a six well plate at 100,000 cells/well. The next day, test substance solutions (solvent: DMSO) were added.
(2) Cell Proliferation Test
Three days after the addition of the test substance solution, the medium was removed by aspiration. Then 1 ml of EMEM medium containing 10% Alamar Blue solution was added, and a reaction was allowed to proceed at 37° C. After 30 minutes, 100 μL of the reaction mixture was transferred to a 96 well plate and fluorescence was measured at an excitation wavelength of 544 nm and a measurement wavelength of 590 nm. Using the value thus measured as a relative value of cell count, a ratio of the cell count (% cell count) of the test substance-added group to the test substance-absent group (group in which only the solvent was added) was calculated. The higher the % cell count, the lower the cytotoxicity. It was determined that a compound having the % cell count of 80% or more was non-cytotoxic, and that a compound having the % cell count of less than 80% was cytotoxic.
(3) Quantification of Melanin
The cells after the cell proliferation test were washed with PBS three times, and then lysed by addition of 200 μL of 1M NaOH to measure an absorbance at 475 nm. Using the value thus measured as a: value of the melanin amount, a ratio of the melanin amount (%) of the test substance-added group to the test substance-absent group (group in which only the solvent was added) was calculated. The lower the ratio of the melanin amount, the higher the melanin production-inhibitory effect. […] The inhibitory effect on melanin production was evaluated according to the following criteria.
⊚: the minimum concentration for inhibition of melanin production was 1 ppm or less.
◯: the minimum concentration for inhibition of melanin production was more than 1 ppm and 10 ppm or less.

How did the minimal effective concentration turn out when CCc1cnc(-n2nc(C)cc2C)nc1 [Compound 21, 1-(5-ethylpyrimidin-2-yl)-3,5-dimethylpyrazole] was run?
The minimal effective concentration was ≤ 1 µg/mL.

For Cc1cc(C)nc(-n2ccnc2C)n1 [Compound 41], which minimal effective concentration is on record?
The minimal effective concentration was ≤ 1 µg/mL.

For Cc1cnn(-c2nc(C)cc(C)n2)c1 [Compound 23], which minimal effective concentration is on record?
Its minimal effective concentration is ≤ 1 µg/mL.

For Cc1cc(C)n(-c2ccccc2)n1 [Compound 33, 1-phenyl-3,5-dimethylpyrazole], which minimal effective concentration is on record?
The minimal effective concentration was 1 to 10 µg/mL.

Which minimal effective concentration does the source give for Cc1cc(C)nc(-n2ncc3c2/C(=C/c2ccc(Cl)cc2)CC3)n1 [Compound 30] here?
The minimal effective concentration was ≤ 1 µg/mL.

With Cc1cc(N)n(-c2ncccn2)n1 [Compound 3] as the compound, how does the minimal effective concentration read?
Its minimal effective concentration is 1 to 10 µg/mL.

How did the minimal effective concentration turn out when Cc1cc(N2CCOCC2)nc(-n2nc(C)cc2C)n1 [Compound 2] was run?
Its minimal effective concentration is ≤ 1 µg/mL.

How did the minimal effective concentration turn out when Cc1cc(C)cc(-n2nc(C)cc2C)c1 [Compound 35] was run?
Its minimal effective concentration is ≤ 1 µg/mL.

With Cc1cc(N2CCOCC2)nc(-n2nc(C)c(C)c2C)n1 [Compound 20] as the compound, how does the minimal effective concentration read?
Its minimal effective concentration is ≤ 1 µg/mL.

CCc1c(C)nn(-c2nc(C)cc(C)n2)c1O [Compound 8] was tested. Which minimal effective concentration did it give?
Its minimal effective concentration is ≤ 1 µg/mL.

For OC[C@H]1O[C@@H](Oc2ccc(O)cc2)[C@H](O)[C@@H](O)[C@@H]1O [Arbutin, 4-hydroxyphenyl-β-D-glucopyranoside, reference compound], which “Minimum concentration (%)” value is on record?
Its value is 5 × 10^−4%.

How did the minimal effective concentration turn out when Cc1cc(C)nc(-n2nc(C)cc2O)n1 [Compound 11] was run?
Its minimal effective concentration is 1 to 10 µg/mL.

For Cc1ccnc(-n2nc(C)cc2C)c1 [Compound 40, 1-(4-methylpyridin-2-yl)-3,5-dimethylpyrazole], which minimal effective concentration is on record?
Its minimal effective concentration is 1 to 10 µg/mL.

For Cc1cc(S)nc(-n2nc(C)cc2C)n1 [Compound 6], which minimal effective concentration is on record?
Its minimal effective concentration is ≤ 1 µg/mL.

With Cc1cn(-c2nc(C)cc(C)n2)cn1 [Compound 42] as the compound, how does the minimal effective concentration read?
The minimal effective concentration was ≤ 1 µg/mL.

Which minimal effective concentration does the source give for Cc1cc(C)nc(-n2ccc(C)n2)n1 [Compound 18] here?
The minimal effective concentration was ≤ 1 µg/mL.

Which minimal effective concentration does the source give for Cc1ccnc(-n2nc(C)cc2C)n1 [Compound 22, 1-(4-methylpyrimidin-2-yl)-3,5-dimethylpyrazole] here?
The minimal effective concentration was ≤ 1 µg/mL.

For Cc1cc(C)nc(-n2nccc2C)n1 [Compound 17], which minimal effective concentration is on record?
Its minimal effective concentration is ≤ 1 µg/mL.

How did the minimal effective concentration turn out when Cc1cc(C)nc(-n2nc(C)cc2N)n1 [Compound 1] was run?
The minimal effective concentration was ≤ 1 µg/mL.

What does the source list for CNc1cc(C)nc(-n2nc(C)cc2C)n1 [Compound 7]?
minimal effective concentration: ≤ 1 µg/mL; Minimum concentration (%): 3 × 10^−6%

Cc1cc(N(C)C)nc(-n2nc(C)cc2C)n1 [Compound 14] was tested. Which minimal effective concentration did it give?
The minimal effective concentration was ≤ 1 µg/mL.

And the “Minimum concentration (%)” value?
The value was 3 × 10^−6%.

For Cc1cc(C)nc(-n2cccn2)n1 [Compound 12, 2-(pyrazol-1-yl)-4,6-dimethylpyrimidine], which minimal effective concentration is on record?
Its minimal effective concentration is 1 to 10 µg/mL.

How did the minimal effective concentration turn out when COc1cc(OC)nc(-n2nc(C)cc2C)n1 [Compound 13] was run?
The minimal effective concentration was ≤ 1 µg/mL.

Which minimal effective concentration does the source give for Cc1cc(C)nc(N2CC(C)CC(C)C2)n1 (centres unmarked) [Compound 45, N-(4,6-dimethylpyrimidin-2-yl)-3,5-dimethylpiperidine] here?
Its minimal effective concentration is 1 to 10 µg/mL.

Which minimal effective concentration does the source give for Cc1cc(C)n(-c2ccc(C)c(C)c2)n1 [Compound 34] here?
Its minimal effective concentration is ≤ 1 µg/mL.

For Cc1cc(C)n(-c2ncccn2)n1 [Compound 4, 1-(pyrimidin-2-yl)-3,5-dimethylpyrazole], which minimal effective concentration is on record?
The minimal effective concentration was ≤ 1 µg/mL.

Which minimal effective concentration does the source give for Cc1cccc(-n2nc(C)cc2C)c1 [Compound 36] here?
The minimal effective concentration was ≤ 1 µg/mL.
